From US6306907A, “Antipsychotic” (Taiyo Fishery Co., Ltd., priority 1992, dated 2001)

Columns and labels:
NMDA receptors = experiment: Electrophysiological patch clamp test of the NMDA-induced current in hippocampal CA1 neurons; format: cell-based, rat
Description: Under the circumstances, the effects of docosahexaenoic acid on NMDA receptors of PCP were investigated.
The investigation was conducted by an electrophysiological procedure. More specifically, the brain of a 2-week-old rat was delivered and slices were prepared. Then, neurons were taken from the hippocampal CA1 region and used as samples. An electrophysiological test was conducted by a patch clamp method under fixed potential conditions.

[1] = tested on: negative symptoms of schizophrenia; experiment: One-month oral administration to subjects, compared with placebo; format: in vivo; details: human, oral 300 mg three times a day
Description: Sixteen subjects aged from 35 to 60 were treated with either the antipsychotic of the present invention or a placebo. Eleven out of these sixteen subjects had been treated with chlorpromazine and haloperidol in the past. Eight subjects were treated with the antipsychotic of the present invention and the other eight were treated with the placebo.
Docosahexaenoic acid or placebo was orally administered to the subjects three times a day, each in a dose of 300 mg.

## CN[C@H](CC(=O)O)C(=O)O [NMDA, N-methyl-D-aspartic acid]
NMDA receptors; 30 μM NMDA, holding potential -50 mV, rat hippocampal CA1 neurons
  inward current caused by NMDA: 300 pA

## c1ccc(C2(N3CCCCC3)CCCCC2)cc1 [PCP, phencyclidine]
NMDA receptors; 5 μM PCP and 30 μM NMDA
  change of NMDA-induced current on treatment with PCP: decreased by half

## CC/C=C\C/C=C\C/C=C\C/C=C\C/C=C\C/C=C\CCC(=O)O [docosahexaenoic acid]
[1]
  primary side effects: neither primary side effects
  variations in biochemical blood and urine tests: nor significant variations in biochemical blood and urine tests
